Measurements published in patent US9776997B2, “3-aryl-substituted imidazo[1,2-A]pyridines and their use” (Bayer Pharma Aktiengesellschaft, priority 2013, dated 2017).
“And” between values parts separate entries of the source, which are not always exact repeats. Equal values may be shown once. Where a name gives a salt, the structure may show the parent alone.

Target: T1, recombinant guanylate cyclase reporter cell line (Rattus norvegicus, UniProt P19686+P20595)
T1 construct: expressed in transfected cells; host or cells: recombinant reporter cell line
T1 sequence (P19686 1-690): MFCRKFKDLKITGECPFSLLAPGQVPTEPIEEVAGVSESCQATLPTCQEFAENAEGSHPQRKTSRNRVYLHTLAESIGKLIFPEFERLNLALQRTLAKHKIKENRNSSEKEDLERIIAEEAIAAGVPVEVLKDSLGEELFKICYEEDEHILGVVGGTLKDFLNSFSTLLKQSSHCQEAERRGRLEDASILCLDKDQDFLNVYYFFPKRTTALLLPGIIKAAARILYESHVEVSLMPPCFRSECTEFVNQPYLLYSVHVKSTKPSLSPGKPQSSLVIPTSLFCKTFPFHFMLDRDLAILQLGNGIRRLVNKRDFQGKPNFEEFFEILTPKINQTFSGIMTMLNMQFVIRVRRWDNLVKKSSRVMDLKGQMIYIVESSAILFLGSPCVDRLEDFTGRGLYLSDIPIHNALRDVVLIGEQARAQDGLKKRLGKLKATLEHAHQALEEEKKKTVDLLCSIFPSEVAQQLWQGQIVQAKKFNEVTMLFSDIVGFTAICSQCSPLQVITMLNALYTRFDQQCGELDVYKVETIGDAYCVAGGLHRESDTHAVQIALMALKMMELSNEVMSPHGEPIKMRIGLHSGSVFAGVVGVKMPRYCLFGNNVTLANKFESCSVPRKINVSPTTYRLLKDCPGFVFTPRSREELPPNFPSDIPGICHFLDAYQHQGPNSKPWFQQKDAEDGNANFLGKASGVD
T1 sequence (P20595 1-619): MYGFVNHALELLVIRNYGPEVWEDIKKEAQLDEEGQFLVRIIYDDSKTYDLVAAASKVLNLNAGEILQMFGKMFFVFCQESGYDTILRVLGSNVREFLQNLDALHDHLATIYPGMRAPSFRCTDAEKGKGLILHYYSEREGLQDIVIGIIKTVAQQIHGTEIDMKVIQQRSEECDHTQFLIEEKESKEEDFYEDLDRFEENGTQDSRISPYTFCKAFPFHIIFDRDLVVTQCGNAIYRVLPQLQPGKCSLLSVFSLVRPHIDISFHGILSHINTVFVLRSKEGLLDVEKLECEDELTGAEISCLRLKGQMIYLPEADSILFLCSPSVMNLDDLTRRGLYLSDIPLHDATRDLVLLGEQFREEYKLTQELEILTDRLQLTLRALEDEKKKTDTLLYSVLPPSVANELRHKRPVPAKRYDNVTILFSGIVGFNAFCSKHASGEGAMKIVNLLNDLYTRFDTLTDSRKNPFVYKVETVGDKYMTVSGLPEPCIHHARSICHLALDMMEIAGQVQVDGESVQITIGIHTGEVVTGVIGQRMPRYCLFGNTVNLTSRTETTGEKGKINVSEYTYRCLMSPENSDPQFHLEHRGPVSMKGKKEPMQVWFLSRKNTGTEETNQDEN
Test: Effect on a recombinant guanylate cyclase reporter cell line
Assay type: cell-based
Details: MEC = minimum effective concentration; in some cases mean values for individual determinations
Experimental: B-2. Effect on a Recombinant Guanylate Cyclase Reporter Cell Line
The cellular effect of the inventive compounds is determined using a recombinant guanylate cyclase reporter cell line, as described in F. Wunder et al., Anal. Biochem. 339, 104-112 (2005).
Representative MEC values (MEC=minimum effective concentration) for the inventive compounds are shown in the table below (in some cases as mean values for individual determinations): […]

MEC	Structure (SMILES)
3.0 µM	Cc1nc2c(OCC3CCCCC3)cccn2c1-c1nnc(C2CC2)o1 [Example 74]
3.0 µM	Cc1cc(OCc2c(F)cccc2F)c2nc(C)c(-c3cncc(C(=O)O)c3)n2c1 [Example 76, 5-{8-[(2,6-Difluorobenzyl)oxy]-2,6-dimethylimidazo[1,2-a]pyridin-3-yl}nicotinic acid trifluoroacetate]
0.1 µM	Cc1cc(OCc2c(F)cccc2F)c2nc(C)c(-c3cncc(C(N)=O)c3)n2c1 [Example 77, 5-{8-[(2,6-Difluorobenzyl)oxy]-2,6-dimethylimidazo[1,2-a]pyridin-3-yl}nicotinamide]
0.1 µM	Cc1cc(OCc2c(F)cccc2F)c2nc(C)c(-c3cncc(C(=O)NC4CC4)c3)n2c1 [Example 78, N-Cyclopropyl-5-{8-[(2,6-difluorobenzyl)oxy]-2,6-dimethylimidazo[1,2-a]pyridin-3-yl}nicotinamide trifluoroacetate]
0.3 µM	Cc1cc(OCc2c(F)cccc2F)c2nc(C)c(-c3nccc(C(N)=O)n3)n2c1 [Example 80, 2-{8-[(2,6-Difluorobenzyl)oxy]-2,6-dimethylimidazo[1,2-a]pyridin-3-yl}pyrimidine-4-carboxamide trifluoroacetate]
3.0 µM	Cc1cc(OCc2c(F)cccc2F)c2nc(C)c(-c3nccc(C(=O)NC4CC4)n3)n2c1 [Example 81, N-Cyclopropyl-2-{8-[(2,6-difluorobenzyl)oxy]-2,6-dimethylimidazo[1,2-a]pyridin-3-yl}pyrimidine-4-carboxamide trifluoroacetate]
0.1 µM	Cc1cc(OCc2c(F)cccc2F)c2nc(C)c(-c3cn[nH]n3)n2c1 [Example 82, 8-[(2,6-difluorobenzyl)oxy]-2,6-dimethyl-3-(2H-1,2,3-triazol-4-yl)imidazo[1,2-a]pyridine]
0.3 µM	Cc1cc(OCc2c(F)cccc2F)c2nc(C)c(-c3cnn(CC(C)(C)N)n3)n2c1 [Example 83, 1-(4-{8-[(2,6-Difluorobenzyl)oxy]-2,6-dimethylimidazo[1,2-a]pyridin-3-yl}-2H-1,2,3-triazol-2-yl)-2-methylpropan-2-amine]
1.0 µM	Cc1cc(OCc2ncccc2F)c2nc(C)c(-c3cn[nH]c3)n2c1 [Example 84, 8-[(3-fluoropyridin-2-yl)methoxy]-2,6-dimethyl-3-(1H-pyrazol-4-yl)imidazo[1,2-a]pyridine]
3.0 µM	Cc1cc(OCc2ncccc2F)c2nc(C)c(-c3cnn(CC(C)(C)N)c3)n2c1 [Example 85, 1-(4-{8-[(3-Fluoropyridin-2-yl)methoxy]-2,6-dimethylimidazo[1,2-a]pyridin-3-yl}-1H-pyrazol-1-yl)-2-methylpropan-2-amine]
0.03 µM	Cc1cc(OCc2c(F)ccc(F)c2F)c2nc(C)c(-c3cn[nH]c3)n2c1 [Example 86, 2,6-dimethyl-3-(1H-pyrazol-4-yl)-8-[(2,3,6-trifluorobenzyl)oxy]imidazo[1,2-a]pyridine]
0.1 µM	Cc1cc(OCc2c(F)ccc(F)c2F)c2nc(C)c(-c3cnn(CC(C)(C)N)c3)n2c1 [Example 87, 1-(4-{2,6-Dimethyl-8-[(2,3,6-trifluorobenzyl)oxy]imidazopyridin-3-yl}-1H-pyrazol-1-yl)-2-methylpropan-2-amine]
0.01 µM	Cc1cc(OCc2c(F)cccc2F)c2nc(C)c(-c3cn[nH]c3)n2c1 [Example 88, 8-[(2,6-difluorobenzyl)oxy]-2,6-dimethyl-3-(1H-pyrazol-4-yl)imidazo[1,2-a]pyridine]
0.03 µM	Cc1cc(OCc2c(F)cccc2F)c2nc(C)c(-c3cnn(CC(C)(C)N)c3)n2c1 [Example 89, 1-(4-{8-[(2,6-Difluorobenzyl)oxy]-2,6-dimethylimidazo[1,2-a]pyridin-3-yl}-1H-pyrazol-1-yl)-2-methylpropan-2-amine]
0.3 µM	Cc1nc2c(OCc3c(F)cccc3F)cccn2c1-c1cnn(CC(C)(C)N)c1 [Example 90, 1-(4-{8-[(2,6-Difluorobenzyl)oxy]-2-methylimidazo[1,2-a]pyridin-3-yl}-1H-pyrazol-1-yl)-2-methylpropan-2-amine]
0.1 µM	Cc1cc(OCc2c(F)cccc2F)c2nc(C)c(-c3cnn(CCO)c3)n2c1 [Example 91, 2-(4-{8-[(2,6-difluorobenzyl)oxy]-2,6-dimethylimidazo[1,2-a]pyridin-3-yl}-1H-pyrazol-1-yl)ethanol]
0.03 µM	Cc1cc(OCc2c(F)cccc2F)c2nc(C)c(-c3cnn(CCN4CCC(F)(F)CC4)c3)n2c1 [Example 92, 8-[(2,6-Difluorobenzyl)oxy]-3-{1-[2-(4,4-difluoropiperidin-1-yl)ethyl]-1H-pyrazol-4-yl}-2,6-dimethylimidazo[1,2-a]pyridine]
0.1 µM	Cc1cc(OCc2c(F)cccc2F)c2nc(C)c(-c3cnn(CCN4CCS(=O)(=O)CC4)c3)n2c1 [Example 93, 8-[(2,6-Difluorobenzyl)oxy]-3-{1-[2-(1,1-dioxidothiomorpholin-4-yl)ethyl]-1H-pyrazol-4-yl}-2,6-dimethylimidazo[1,2-a]pyridine]
0.3 µM	Cc1cc(OCc2c(F)cccc2F)c2nc(C)c(-c3cnn(CCN4CCN(C)CC4)c3)n2c1 [Example 94, 8-[(2,6-Difluorobenzyl)oxy]-2,6-dimethyl-3-{1-[2-(4-methylpiperazin-1-yl)ethyl]-1H-pyrazol-4-yl}imidazo[1,2-a]pyridine]
0.3 µM	Cc1cc(OCc2c(F)cccc2F)c2nc(C)c(-c3cnn(CCN4CC(O)C4)c3)n2c1 [Example 95, 1-[2-(4-{8-[(2,6-Difluorobenzyl)oxy]-2,6-dimethylimidazo[1,2-a]pyridin-3-yl}-1H-pyrazol-1-yl)ethyl]azetidin-3-ol trifluoroacetate]
0.065 µM	Cc1cc(OCc2c(F)cccc2F)c2nc(C)c(-c3cnn(CCS(C)(=O)=O)c3)n2c1 [Example 96, 8-[(2,6-Difluorobenzyl)oxy]-2,6-dimethyl-3-{1-[2-(methylsulphonyl)ethyl]-1H-pyrazol-4-yl}imidazo[1,2-a]pyridine]
0.3 µM	Cc1cc(OCc2c(F)cccc2F)c2nc(C)c(-c3cnn(CCOC(N)=O)c3)n2c1 [Example 97, 2-(4-{8-[(2,6-Difluorobenzyl)oxy]-2,6-dimethylimidazo[1,2-a]pyridin-3-yl}-1H-pyrazol-1-yl)ethyl carbamate]
0.03 µM and 3.0 µM	Cc1cc(OCc2c(F)cccc2F)c2nc(C)c(-c3cnn(Cc4cc(C)on4)c3)n2c1 [Example 98, 8-[(2,6-Difluorobenzyl)oxy]-2,6-dimethyl-3-{1-[(5-methyl-1,2-oxazol-3-yl)methyl]-1H-pyrazol-4-yl}imidazo[1,2-a]pyridine]
0.03 µM and 0.1 µM	Cc1cc(OCc2c(F)cccc2F)c2nc(C)c(-c3cnn(CCc4c(C)n[nH]c4C)c3)n2c1 [Example 99, 8-[(2,6-Difluorobenzyl)oxy]-3-{1-[2-(3,5-dimethyl-1H-pyrazol-4-yl)ethyl]-1H-pyrazol-4-yl}-2,6-dimethylimidazo[1,2-a]pyridine]
0.03 µM	Cc1cc(OCc2c(F)cccc2F)c2nc(C)c(-c3cnn(CCCC#N)c3)n2c1 [Example 100, 4-(4-{8-[(2,6-Difluorobenzyl)oxy]-2,6-dimethylimidazo[1,2-a]pyridin-3-yl}-1H-pyrazol-1-yl)butanonitrile]
0.1 µM	Cc1cc(OCc2c(F)cccc2F)c2nc(C)c(-c3cnn(CCCc4nnn[nH]4)c3)n2c1 [Example 101, 8-[(2,6-Difluorobenzyl)oxy]-2,6-dimethyl-3-{1-[3-(1H-tetrazol-5-yl)propyl]-1H-pyrazol-4-yl}imidazo[1,2-a]pyridine]
0.1 µM	COC(=O)CCn1cc(-c2c(C)nc3c(OCc4c(F)cccc4F)cc(C)cn23)cn1 [Example 102, Methyl 3-(4-{8-[(2,6-difluorobenzyl)oxy]-2,6-dimethylimidazo[1,2-a]pyridin-3-yl}-1H-pyrazol-1-yl)propanoate]
